# Reference: patent US11319344B2, “Non-membrane disruptive P53 activating stapled peptides” (AGENCY FOR SCIENCE, TECHNOLOGY AND RESEARCH, priority 2015, dated 2022)
# Read-outs that look alike come from different tables or passages of the source. *1 amine or outer side, *2 acyl side, *3 side chain or, on linkers, in order; H or OH if unused. Where a SMILES comes first, the peptide text is derived from it. Bridges are numbered along the chain shown (N, C = ends). [ ]: non-standard residue; d: D form. ξ: configuration not given here. ξαMeNle(6-ylidene) = CC(CCCC=[*:3])(N[*:1])C(=O)[*:2]; X1 = CC(CCCCCCC=[*:3])(N[*:1])C(=O)[*:2]; R8 = C=CCCCCCC[C@@](C)(N)C(=O)O; R5 = C=CCCC[C@@](C)(N)C(=O)O; S5 = C=CCCC[C@](C)(N)C(=O)O; Ahx = NCCCCCC(=O)O
# Assays:
# [1] = molecular target: N-terminal domain of Mdm2 (1-125) (Homo sapiens, UniProt Q00987); experiment: Competitive fluorescence anisotropy titration (apparent Kd); conditions: for Kd stronger in comparison to sMTIDE-02: ratio to sMTIDE-02 Kd
# Protocol: In this assay, a N-terminally FAM labelled peptide of the sequence [sequence]
# The cells expressing the Mdm2 GST fusion construct were grown in LB medium at 37° C. to an OD600 of ˜0.6 and induction was carried out with 1 mM isopropyl β-D-1-thiogalactopyranoside (IPTG) at room temperature. Cells were harvested by centrifugation and the cell pellets were resuspended in 50 mM Tris pH 8.0, 10% sucrose and then sonicated. The sonicated sample was centrifuged for 60 minutes at 17,000 g at 4° C. […] The column was then further washed by 6 volumes of wash buffer. Mdm2 were then purified from the column by cleavage with PreScission protease. 10 units of PreScission protease, in one column volume of PBS with 1 mM DTT buffer, were injected onto the column. The cleavage reaction was allowed to proceed overnight at 4° C. The cleaved protein was then eluted of the column with wash buffer. Protein fractions were analysed with SDS-PAGE and concentrated using a Centricon (3.5 kDa molecular weight cut-off (MWCO)) concentrator. The Mdm2 protein sample was then dialyzed into a buffer solution containing 20 mM Bis-Tris, pH 6.5, 0.05M NaCl with 1 mM DTT and loaded onto a monoS column pre-equilibrated in buffer A (20 mM Bis-Tris, pH 6.5, 1 mM DTT). The column was then washed in 6 column volumes of buffer A and bound protein was eluted with a linear gradient of 1M NaCl over 25 column volumes. Protein fractions were analysed with sodium dodecyl sulfate-polyacrylamide gel electrophoresis (SDS-PAGE) and concentrated using a Centricon (3.5 kDa molecular weight cut-off (MWCO)) concentrator.
# Apparent dissociation constant (Kd) values were determined for a variety of molecules via competitive fluorescence anisotropy experiments. […] The competing molecules were then titrated against the complex of the FAM labelled peptide and protein. Apparent dissociation constant (Kd) values were determined by fitting the experimental data to the equations shown below:
# [L]st and [L]t denote labelled ligand and total unlabelled ligand input concentrations, respectively. Kd2 is the dissociation constant of the interaction between the unlabelled ligand and the protein. In all competitive types of experiments, it is assumed that [P]t>[L]st, otherwise considerable amounts of free labelled ligand would always be present and would interfere with measurements. […] The FAM-labelled peptide was dissolved in dimethyl sulfoxide (DMSO) at 1 mM and diluted into experimental buffer. Readings were carried out with a Envision Multilabel Reader. […] All titrations were carried out in triplicate. Curve-fitting was carried out using Prism 4.0 (GraphPad). […]
# [2] = tested on: p53 transcriptional activity in ARN8 cells; experiment: ARN8 β-galactosidase based p53 reporter assay; type: cell-based, Human; conditions: 18 h; for p53 activation (β-galactosidase activity) in ARN8 cells: serum free
# Protocol: ARN8 cells contain the same β-galactosidase gene under the control of a p53 promoter that is stably transfected into T22 cells. […] The YS-07 and YS-09 titrations were again repeated and the lactate dehydrogenase leakage from ARN8 cells measured instead (FIGS. 8c and 8d).
# (§1) ARN8 cells, which were stably transfected with a p53 responsive β-galactosidase reporter, were seeded into 96-well plate at a cell density of 8000 cells per well. Cells were also maintained in Dulbecco's Minimal Eagle Medium (DMEM) with 10% fetal bovine serum (FBS) and penicillin/streptomycin. […] Measurements were carried out using a Safire II multiplate reader. Experiments were carried out independently twice.
# [3] = tested on: p53 transcriptional activity in T22 cells; experiment: T22 p53 β-galactosidase based reporter assay; type: cell-based, murine; conditions: for IC50: T22 p53 reporter assay, 18 h; for ability to induce p53 activity in T22 reporter assay: with and without serum
# Protocol: The YS-01/04 peptides were screened in a murine T22-derived p53 reporter assay, either with or without fetal calf serum, to assess their ability to induce p53 transcriptional activity in intact cells (Table 1 and FIG. 3).
# as §1, with “T22” for “ARN8”
# [4] = Circular dichroism spectroscopy (helicity in solution); type: physicochemical; conditions: peptide unbound in solution
# T22 cells = experiment: Lactate dehydrogenase release assay, T22 cells; type: cell-based; conditions: 2 h, 50/25/12.5 μM, absence or presence of serum
# Protocol: (§2) The stapled YS-01/04 peptides were also screened for their ability to perturb the cell membrane wall of T22 and ARN8 cells and release cytosolic lactate dehydrogenase (LDH). An effect that is regarded as undesirable as this may indicate that the peptide is non-specifically toxic to different cell types. A short 2 hour time treatment period is used for this assay as it is assumed that perforation of the cell membrane occurs […] for cell programmed death. […] The lactate dehydrogenase leakage measured was much greater in ARN8 cells than T22 cells, showing that different cells vary in their sensitivities to the membrane disruptive properties of YS-03. […] This implies that p53 activation, which is also supported by the data for YS-04, does occur in the absence of membrane disruption and that the biological activity observed for is not a direct consequence of cellular toxicity.
# (§3) T22 cells or ARN8 cells, both of which were stably transfected with a p53 responsive β-galactosidase reporter, were seeded into a 96-well plate at a cell density of 5000 cells per well. Cells were also maintained in Dulbecco's Minimal Eagle Medium (DMEM) with 10% fetal bovine serum (FBS) and penicillin/streptomycin. The cells were incubated for 24 hours and then treated with compounds/peptide for 2 hours in DMEM with or without 10% FBS. Cytosolic lactate dehydrogenase release was detected using the non-radioactive cytotoxicity Assay kit (Promega) as per manufacturer's instructions. Measurements were carried out using an Envision multiplate reader.
# ARN8 cells = experiment: Lactate dehydrogenase release assay, ARN8 cells; type: cell-based; conditions: 2 h, 50/25/12.5 μM, absence or presence of serum
# Protocol: as §2, §3
# [5] = absence of serum, read-out: T22 IC50 (0% μM)
# [6] = presence of 10% fetal calf serum, read-out: T22 Ic50 (10% μM)
# N-terminal domain of Mdm2 (1-125), sequence (Q00987 1-125): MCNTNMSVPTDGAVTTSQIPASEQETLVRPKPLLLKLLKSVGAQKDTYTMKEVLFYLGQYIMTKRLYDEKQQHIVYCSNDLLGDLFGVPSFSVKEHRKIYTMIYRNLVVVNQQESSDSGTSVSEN
SMILES,"IC50 [3, 5] [µM]","IC50 [3, 6] [µM]",ability to induce p53 activity in T22 reporter assay [3],helicity in solution (CD spectra) [4],also measured
"CC(=O)N[C@H](C(=O)N[C@@H](CO)C(=O)N[C@@H](Cc1ccccc1)C(=O)N[C@]1(C)CCCC=CCCC[C@](C)(C(=O)N[C@@H](CC(C)C)C(=O)N[C@@H](CC(C)C)C(=O)N2CCC[C@H]2C(=O)N[C@@H](CCC(=O)O)C(=O)N[C@@H](CC(N)=O)C(=O)N[C@@H](Cc2ccccc2)C(N)=O)NC(=O)[C@H](Cc2c[nH]c3ccccc23)NC(=O)[C@H](Cc2ccc(O)cc2)NC(=O)[C@H](CCC(=O)O)NC1=O)[C@@H](C)O [YS-01, Ac-^17TSFX5EYWX5LLPENF^30-NH2] (Ac-TSF[R5]EYW[R5]LLPENF-NH2; staple 4-8)",–,–,–,–,Kd stronger in comparison to sMTIDE-02 [1]: approximately 3 fold
"CC(=O)N[C@H](C(=O)N[C@@H](CO)C(=O)N[C@@H](Cc1ccccc1)C(=O)N[C@]1(C)CCCC=CCCC[C@](C)(C(=O)N[C@@H](CC(C)C)C(=O)N[C@@H](CC(C)C)C(=O)N[C@@H](CO)C(=O)N[C@@H](CCC(=O)O)C(=O)N[C@@H](CC(N)=O)C(=O)N[C@@H](Cc2ccc(O)cc2)C(N)=O)NC(=O)[C@H](Cc2c[nH]c3ccccc23)NC(=O)[C@H](Cc2ccc(O)cc2)NC(=O)[C@H](CCC(=O)O)NC1=O)[C@@H](C)O [YS-06, Ac-^17TSFX5EYWX5LLSENY^30-NH2] (Ac-TSF[R5]EYW[R5]LLSENY-NH2; staple 4-8)",–,–,improvement of both peptides to activate p53,significantly more helical structure,–
"CC(=O)N[C@H](C(=O)N[C@@H](CO)C(=O)N[C@@H](Cc1ccccc1)C(=O)NC1(C)CCCCCCC=CCCCC(C)(C(=O)N[C@@H](CCC(=O)O)C(=O)N[C@@H](CC(N)=O)C(=O)N[C@@H](Cc2ccc(O)cc2)C(N)=O)NC(=O)[C@H](CC(C)C)NC(=O)[C@H](CC(C)C)NC(=O)[C@H](C)NC(=O)[C@H](Cc2c[nH]c3ccccc23)NC(=O)[C@H](Cc2ccc(O)cc2)NC(=O)[C@H](CCC(=O)O)NC1=O)[C@@H](C)O (stereo partly shown) [YS-04, Ac-^17TSFX8EYWALLS5ENY^30-NH2]",9.73,78.3,greater potency in the T22 assay than YS-01 and YS-02,significantly more helical in character in solution than YS-01 and YS-02,"Kd weaker than the i,i+4 analogue peptides (YS-01 and YS-02) ([1]; ratio to YS-01/YS-02 Kd): approximately 2 fold"
"CC(=O)N[C@H](C(=O)N[C@@H](CO)C(=O)N[C@@H](Cc1ccccc1)C(=O)NC1(C)CCCC=CCCCC(C)(C(=O)N[C@@H](CC(C)C)C(=O)N[C@@H](CC(C)C)C(=O)N[C@@H](CO)C(=O)N[C@@H](CCC(=O)O)C(=O)N[C@@H](CC(N)=O)C(=O)N[C@@H](Cc2ccccc2)C(N)=O)NC(=O)[C@H](Cc2c[nH]c3ccccc23)NC(=O)[C@H](Cc2ccc(O)cc2)NC(=O)[C@H](CCC(=O)O)NC1=O)[C@@H](C)O (stereo partly shown) [YS-05, Ac-^17TSFX5EYWX5LLSENF^30-NH2] (Ac-TSF[ξαMeNle(6-ylidene)]EYW[ξαMeNle(6-ylidene)]LLSENF-NH2; staple 4-8)",–,–,improvement of both peptides to activate p53,significantly more helical structure,cytosolic lactate dehydrogenase (LDH) release (T22 cells): negligible activity; cytosolic lactate dehydrogenase (LDH) release (ARN8 cells): negligible activity
"CC(=O)N[C@H](C(=O)N[C@@H](CO)C(=O)N[C@@H](Cc1ccccc1)C(=O)NC1(C)CCCC=CCCCC(C)(C(=O)N[C@@H](CC(C)C)C(=O)N[C@@H](CC(C)C)C(=O)N2CCC[C@H]2C(=O)N[C@@H](CCC(=O)O)C(=O)N[C@@H](CC(N)=O)C(=O)N[C@@H](Cc2ccc(O)cc2)C(N)=O)NC(=O)[C@H](Cc2c[nH]c3ccccc23)NC(=O)[C@H](Cc2ccc(O)cc2)NC(=O)[C@H](CCC(=O)O)NC1=O)[C@@H](C)O (stereo partly shown) [YS-02, Ac-^17TSFX5EYWX5LLPENY^30-NH2] (Ac-TSF[ξαMeNle(6-ylidene)]EYW[ξαMeNle(6-ylidene)]LLPENY-NH2; staple 4-8)",–,–,–,–,cytosolic lactate dehydrogenase (LDH) release (T22 cells): negligible lactate dehydrogenase release; Kd stronger in comparison to sMTIDE-02 [1]: approximately 3 fold; cytosolic lactate dehydrogenase (LDH) release (ARN8 cells): negligible lactate dehydrogenase release

# The next lines start with results.
"IC50 [3, 5] [µM]","IC50 [3, 6] [µM]",SMILES,ability to induce p53 activity in T22 reporter assay [3],helicity in solution (CD spectra) [4],also measured
~0.78,9.95,"CC(=O)N[C@@H](CCCCN)C(=O)N[C@@H](CCCCN)C(=O)NCCCCCC(=O)N[C@H](C(=O)N[C@@H](CO)C(=O)N[C@@H](Cc1ccccc1)C(=O)N[C@]1(C)CCCCCCC=CCCC[C@@](C)(C(=O)N[C@@H](CCC(=O)O)C(=O)N[C@@H](CC(N)=O)C(=O)N[C@@H](Cc2ccccc2)C(N)=O)NC(=O)[C@H](CC(C)C)NC(=O)[C@H](CC(C)C)NC(=O)[C@H](C)NC(=O)[C@H](Cc2c[nH]c3ccccc23)NC(=O)[C@H](Cc2ccc(O)cc2)NC(=O)[C@H](CCC(=O)O)NC1=O)[C@@H](C)O [YS-07, Ac-KK-Ahx-^17TSFX8EYWALLS5ENF^30-NH2] (Ac-KK[Ahx]TSF[R8]EYWALL[S5]ENF-NH2; staple 7-14)",most potent,–,p53 activation (β-galactosidase activity) in ARN8 cells [2]: efficiently induced β-galactosidase activity
1.98,11.6,"CC(=O)N[C@@H](CCCNC(=N)N)C(=O)N[C@@H](CCCNC(=N)N)C(=O)N[C@@H](CCCNC(=N)N)C(=O)NCCCCCC(=O)N[C@H](C(=O)N[C@@H](CO)C(=O)N[C@@H](Cc1ccccc1)C(=O)NC1(C)CCCCCCC=CCCCC(C)(C(=O)N[C@@H](CCC(=O)O)C(=O)N[C@@H](CC(N)=O)C(=O)N[C@@H](Cc2ccccc2)C(N)=O)NC(=O)[C@H](CC(C)C)NC(=O)[C@H](CC(C)C)NC(=O)[C@H](C)NC(=O)[C@H](Cc2c[nH]c3ccccc23)NC(=O)[C@H](Cc2ccc(O)cc2)NC(=O)[C@H](CCC(=O)O)NC1=O)[C@@H](C)O (stereo partly shown) [YS-09, Ac-RRR-Ahx-^17TSFX8EYWALLS5ENF^30-NH2] (Ac-RRR[Ahx]TSF[X1]EYWALL[ξαMeNle(6-ylidene)]ENF-NH2; staple 8-15)",–,–,p53 activation in ARN8 cells ([2]; 10% serum): slightly more activity than YS-07; p53 activation (β-galactosidase activity) in ARN8 cells [2]: sharp burst of p53 transcriptional activity at 3.125 μM followed by a sharp decline at higher concentrations
7.29,23.4,"CC(=O)N[C@@H](CCCCN)C(=O)N[C@@H](CCCCN)C(=O)NCCCCCC(=O)N[C@H](C(=O)N[C@@H](CO)C(=O)N[C@@H](Cc1ccccc1)C(=O)N[C@]1(C)CCCCCCC=CCCC[C@@](C)(C(=O)N[C@@H](CCC(=O)O)C(=O)N[C@@H](CC(N)=O)C(=O)N[C@@H](Cc2ccc(O)cc2)C(N)=O)NC(=O)[C@H](CC(C)C)NC(=O)[C@H](CC(C)C)NC(=O)[C@H](C)NC(=O)[C@H](Cc2c[nH]c3ccccc23)NC(=O)[C@H](Cc2ccc(O)cc2)NC(=O)[C@H](CCC(=O)O)NC1=O)[C@@H](C)O [YS-08, Ac-KK-Ahx-^17TSFX8EYWALLS5ENY^30-NH2] (Ac-KK[Ahx]TSF[R8]EYWALL[S5]ENY-NH2; staple 7-14)",least potent amongst the four peptides,–,–
1.69,17.9,"CC(=O)N[C@@H](CCCNC(=N)N)C(=O)N[C@@H](CCCNC(=N)N)C(=O)N[C@@H](CCCNC(=N)N)C(=O)NCCCCCC(=O)N[C@H](C(=O)N[C@@H](CO)C(=O)N[C@@H](Cc1ccccc1)C(=O)NC1(C)CCCCCCC=CCCCC(C)(C(=O)N[C@@H](CCC(=O)O)C(=O)N[C@@H](CC(N)=O)C(=O)N[C@@H](Cc2ccc(O)cc2)C(N)=O)NC(=O)[C@H](CC(C)C)NC(=O)[C@H](CC(C)C)NC(=O)[C@H](C)NC(=O)[C@H](Cc2c[nH]c3ccccc23)NC(=O)[C@H](Cc2ccc(O)cc2)NC(=O)[C@H](CCC(=O)O)NC1=O)[C@@H](C)O (stereo partly shown) [YS-10, Ac-RRR-Ahx-^17TSFX8EYWALLS5ENY^30-NH2] (Ac-RRR[Ahx]TSF[X1]EYWALL[ξαMeNle(6-ylidene)]ENY-NH2; staple 8-15)",–,–,–
